{"source": "patent US6737383B1", "about": "“Herbicidal oxadiazolidines” (priority 1999, dated 2004)", "key": {"[1]": {"test_system": "rape", "test": "Test B pre/postemergence rape", "assay_type": "in vivo, Brassica napus", "procedure,_shortened": "(§1)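 Test chemicals in a non-phytotoxic solvent mixture with surfactant were sprayed preemergence onto planted seeds and postemergence onto plants 2 to 18 cm tall (1- to 4-leaf stage). After twelve to sixteen days in a greenhouse, injury was visually rated against untreated controls from 0 (no effect) to 10 (complete control).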"}, "[2]": {"test_system": "sugar beet", "test": "Test B pre/postemergence sugar beet", "assay_type": "in vivo, Beta vulgaris", "procedure,_shortened": "as §1"}, "[3]": {"test_system": "purple nutsedge", "test": "Test B pre/postemergence purple nutsedge", "assay_type": "in vivo, Cyperus rotundus", "procedure,_shortened": "as §1"}, "[4]": {"test_system": "duck salad", "test": "Test B flood test duck salad", "assay_type": "in vivo, Heteranthera limosa", "procedure,_shortened": "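Each value is a visual injury score relative to controls, with 10 meaning complete control and 0 no effect. Evaluation took place twelve to sixteen days after the 2-leaf-stage plants were treated and kept in the greenhouse.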"}, "[5]": {"conditions": "Postemergence, Rate 125 g/ha, scale 0 to 10, 0 is no effect, 10 is complete control"}, "[6]": {"conditions": "Postemergence, Rate 250 g/ha, scale 0 to 10, 0 is no effect, 10 is complete control"}, "[7]": {"conditions": "Preemergence, Rate 62 g/ha, scale 0 to 10 (0 no effect, 10 complete control)"}, "[8]": {"conditions": "Preemergence, Rate 250 g/ha, scale of 0 to 10 where 0 is no effect and 10 is complete control"}, "[9]": {"conditions": "Preemergence, Rate 500 g/ha, scale of 0 to 10 where 0 is no effect and 10 is complete control"}, "[10]": {"conditions": "Rate 62 g/ha, Postemergence, scale of 0 to 10 where 0 is no effect and 10 is complete control"}, "[11]": {"conditions": "Rate 500 g/ha, Postemergence, scale 0 to 10, 0 no effect, 10 complete control"}, "[12]": {"conditions": "Rate 250 g/ha, Pre-emergence, flood-test species, scale 0 to 10, 0 is no effect, 10 is complete control"}, "[13]": {"conditions": "Rate 500 g/ha, Pre-emergence, flood test species, scale 0 to 10 (0 no effect, 10 complete control)"}, "[14]": {"conditions": "Postemergence, Rate 62 g/ha, scale 0 to 10, 0 is no effect, 10 is complete control"}, "[15]": {"conditions": "Postemergence, Rate 125 g/ha, scale of 0 to 10 where 0 is no effect and 10 is complete control"}, "[16]": {"conditions": "Postemergence, Rate 250 g/ha, scale 0 to 10, 0 no effect, 10 complete control"}, "[17]": {"conditions": "Preemergence, Rate 125 g/ha, scale 0 to 10 (0 no effect, 10 complete control)"}, "[18]": {"conditions": "Preemergence, Rate 500 g/ha, scale 0 (no effect) to 10 (complete control)"}, "[19]": {"conditions": "Postemergence, Rate 1000 g/ha, scale 0 to 10 (0 no effect, 10 complete control)"}, "[20]": {"conditions": "Rate 125 g/ha, Postemergence, scale of 0 to 10 where 0 is no effect and 10 is complete control"}, "[21]": {"conditions": "Rate 125 g/ha, Preemergence, scale of 0 to 10 where 0 is no effect and 10 is complete control"}, "[22]": {"conditions": "Rate 250 g/ha, Postemergence, scale of 0 to 10 where 0 is no effect and 10 is complete control"}, "[23]": {"conditions": "Rate 1000 g/ha, Preemergence, scale 0 to 10 (0 no effect, 10 complete control)"}}, "data": [{"compound": "Cc1nnsc1Cn1c(=O)on(C(=O)N(c2ccccc2)C(C)C)c1=O", "note": "[Compound 378]", "values": [{"measurement": "Plant response rating, Rape", "setting": "[1]; [5]", "value": 0}, {"measurement": "Plant response rating, Rape", "setting": "[1]; [6]", "value": 0}, {"measurement": "Plant response rating, Rape", "setting": "[1]; [7]", "value": 0}, {"measurement": "Rape plant response rating (0 to 10 scale)", "setting": "[1]; Preemergence, Rate 125 g/ha", "value": 0}, {"measurement": "Rape plant response rating", "setting": "[1]; [8]", "value": 0}, {"measurement": "Rape plant response rating", "setting": "[1]; [9]", "value": 0}, {"measurement": "Rape plant response rating", "setting": "[1]; [10]", "value": 0}, {"measurement": "Plant response rating, Rape", "setting": "[1]; [11]", "value": 3}, {"measurement": "Plant response rating, Sugarbeets", "setting": "[2]; [5]", "value": 0}, {"measurement": "Plant response rating, Sugarbeets", "setting": "[2]; [6]", "value": 0}, {"measurement": "Plant response rating, Sugarbeets", "setting": "[2]; [7]", "value": 0}, {"measurement": "Sugarbeets plant response rating (0 to 10 scale)", "setting": "[2]; Preemergence, Rate 125 g/ha", "value": 0}, {"measurement": "Sugarbeets plant response rating", "setting": "[2]; [8]", "value": 0}, {"measurement": "Sugarbeets plant response rating", "setting": "[2]; [9]", "value": 0}, {"measurement": "Sugarbeets plant response rating", "setting": "[2]; [10]", "value": 0}, {"measurement": "Plant response rating, Sugarbeets", "setting": "[2]; [11]", "value": 0}, {"measurement": "Plant response rating, Nutsedge", "setting": "[3]; [5]", "value": 0}, {"measurement": "Plant response rating, Nutsedge", "setting": "[3]; [6]", "value": 0}, {"measurement": "Plant response rating, Nutsedge", "setting": "[3]; [7]", "value": 0}, {"measurement": "Nutsedge plant response rating (0 to 10 scale)", "setting": "[3]; Preemergence, Rate 125 g/ha", "value": 0}, {"measurement": "Nutsedge plant response rating", "setting": "[3]; [8]", "value": 0}, {"measurement": "Nutsedge plant response rating", "setting": "[3]; [9]", "value": 0}, {"measurement": "Nutsedge plant response rating", "setting": "[3]; [10]", "value": 0}, {"measurement": "Plant response rating, Nutsedge", "setting": "[3]; [11]", "value": 0}, {"measurement": "Plant response rating, Ducksalad (0 to 10 scale, 0 is no effect, 10 is complete control)", "setting": "[4]; Rate 62 g/ha, flood test species, Pre-emergence, visual evaluation after twelve to sixteen days", "value": 0}, {"measurement": "Ducksalad plant response rating (0 to 10 scale, 0 is no effect, 10 is complete control)", "setting": "[4]; Rate 125 g/ha, under heading Pre-emergence, flood test species, visual evaluation after twelve to sixteen days", "value": 0}, {"measurement": "Ducksalad plant response rating", "setting": "[4]; [12]", "value": 0}, {"measurement": "Ducksalad plant response rating", "setting": "[4]; [13]", "value": 0}]}, {"compound": "Cc1nn(C)c(Cl)c1-n1c(=O)on(C(=O)N(c2ccc(F)cc2F)C(C)C)c1=O", "note": "[Compound 96]", "values": [{"measurement": "Rape plant response rating", "setting": "[1]; [14]", "value": 0}, {"measurement": "Rape plant response rating", "setting": "[1]; [15]", "value": 0}, {"measurement": "Rape plant response rating", "setting": "[1]; [16]", "value": 0}, {"measurement": "Rape plant response rating", "setting": "[1]; [7]", "value": 0}, {"measurement": "Plant response rating, Rape", "setting": "[1]; [17]", "value": 0}, {"measurement": "Plant response rating, Rape", "setting": "[1]; [8]", "value": 0}, {"measurement": "Rape plant response rating", "setting": "[1]; [18]", "value": 3}, {"measurement": "Rape plant response rating", "setting": "[1]; [11]", "value": 0}, {"measurement": "Sugarbeets plant response rating", "setting": "[2]; [14]", "value": 0}, {"measurement": "Sugarbeets plant response rating", "setting": "[2]; [15]", "value": 0}, {"measurement": "Sugarbeets plant response rating", "setting": "[2]; [7]", "value": 0}, {"measurement": "Sugarbeets plant response rating (0 to 10 scale)", "setting": "[2]; Preemergence, Rate 125 g/ha, 0 is no effect, 10 is complete control", "value": 0}, {"measurement": "Plant response rating, Sugarbeets", "setting": "[2]; [8]", "value": 0}, {"measurement": "Sugarbeets plant response rating", "setting": "[2]; [18]", "value": 2}, {"measurement": "Plant response rating, Sugarbeets", "setting": "[2]; Rate 250 g/ha, Postemergence, scale 0 to 10, 0 is no effect, 10 is complete control", "value": 0}, {"measurement": "Sugarbeets plant response rating", "setting": "[2]; [11]", "value": 0}, {"measurement": "Nutsedge plant response rating", "setting": "[3]; [14]", "value": 0}, {"measurement": "Nutsedge plant response rating", "setting": "[3]; [15]", "value": 0}, {"measurement": "Nutsedge plant response rating", "setting": "[3]; [16]", "value": 0}, {"measurement": "Nutsedge plant response rating", "setting": "[3]; [7]", "value": 0}, {"measurement": "Plant response rating, Nutsedge", "setting": "[3]; [17]", "value": 0}, {"measurement": "Plant response rating, Nutsedge", "setting": "[3]; [8]", "value": 0}, {"measurement": "Nutsedge plant response rating", "setting": "[3]; [18]", "value": 0}, {"measurement": "Nutsedge plant response rating", "setting": "[3]; [11]", "value": 0}, {"measurement": "Ducksalad plant response rating", "setting": "[4]; Postemergence (flood test species), Rate 125 g/ha, scale of 0 to 10 where 0 is no effect and 10 is complete control", "value": 0}, {"measurement": "Ducksalad plant response rating", "setting": "[4]; [14]", "value": 0}, {"measurement": "Ducksalad plant response rating", "setting": "[4]; Rate 500 g/ha, listed under Postemergence (flood test species), scale 0 to 10, 0 no effect, 10 complete control", "value": 0}, {"measurement": "Ducksalad plant response rating", "setting": "[4]; flood test, listed under Postemergence, Rate 250 g/ha, scale 0 to 10, 0 no effect, 10 complete control", "value": 0}]}, {"compound": "CCOC(=O)C(C)N(C(=O)n1oc(=O)n(C2CCCCC2)c1=O)c1ccc(F)cc1", "note": "(stereo not drawn) [Compound 280]", "values": [{"measurement": "Rape plant response rating", "setting": "[1]; [19]", "value": 0}, {"measurement": "Rape plant response rating", "setting": "[1]; [8]", "value": 0}, {"measurement": "Plant response rating, Rape", "setting": "[1]; [9]", "value": 0}, {"measurement": "Rape plant response rating", "setting": "[1]; [20]", "value": 0}, {"measurement": "Rape plant response rating", "setting": "[1]; [21]", "value": 0}, {"measurement": "Plant response rating, Rape", "setting": "[1]; [22]", "value": 0}, {"measurement": "Rape plant response rating", "setting": "[1]; [11]", "value": 0}, {"measurement": "Plant response rating, Rape", "setting": "[1]; [23]", "value": 0}, {"measurement": "Sugarbeets plant response rating", "setting": "[2]; [19]", "value": 0}, {"measurement": "Sugarbeets plant response rating", "setting": "[2]; [8]", "value": 0}, {"measurement": "Plant response rating, Sugarbeets", "setting": "[2]; [9]", "value": 0}, {"measurement": "Sugarbeets plant response rating", "setting": "[2]; [20]", "value": 0}, {"measurement": "Sugarbeets plant response rating", "setting": "[2]; [21]", "value": 0}, {"measurement": "Plant response rating, Sugarbeets", "setting": "[2]; [22]", "value": 0}, {"measurement": "Sugarbeets plant response rating", "setting": "[2]; [11]", "value": 0}, {"measurement": "Plant response rating, Sugarbeets", "setting": "[2]; [23]", "value": 0}, {"measurement": "Nutsedge plant response rating", "setting": "[3]; [19]", "value": 0}, {"measurement": "Nutsedge plant response rating", "setting": "[3]; [8]", "value": 0}, {"measurement": "Plant response rating, Nutsedge", "setting": "[3]; [9]", "value": 0}, {"measurement": "Nutsedge plant response rating", "setting": "[3]; [20]", "value": 0}, {"measurement": "Nutsedge plant response rating", "setting": "[3]; [21]", "value": 0}, {"measurement": "Plant response rating, Nutsedge", "setting": "[3]; [22]", "value": 0}, {"measurement": "Nutsedge plant response rating", "setting": "[3]; [11]", "value": 0}, {"measurement": "Plant response rating, Nutsedge", "setting": "[3]; [23]", "value": 0}, {"measurement": "Ducksalad plant response rating", "setting": "[4]; Pre-emergence, Rate 1000 g/ha, scale 0 to 10 (0 no effect, 10 complete control)", "value": 0}, {"measurement": "Ducksalad plant response rating", "setting": "[4]; Rate 125 g/ha, Pre-emergence, flood test species, scale 0 to 10 where 0 is no effect and 10 is complete control", "value": 0}, {"measurement": "Ducksalad plant response rating", "setting": "[4]; [12]", "value": 0}, {"measurement": "Ducksalad plant response rating", "setting": "[4]; [13]", "value": 0}]}]}
